The nature of data set [1]: Side effects (sedation and irritability) on repeated medication. In kind it is in vivo. Conditions: within a few days of medication.
The test system of data set [2] is hind limb tonic extensor component of the audiogenic seizure. Nature of the data set: Audiogenic seizure in mice (tonic extensor component), single oral dose. The format is in vivo, male O'Grady strain mice. Conditions: for ED50: Mus musculus, po; for activity over time / time of peak effect: single oral dose, 1, 4 and 24 hours. The source says:
(§1) In this test, male O'Grady strain mice (14-16 grams) especially bred for susceptibility to audiogenic seizures were used as subjects. The audiogenic seizure apparatus consisted of a wooden box enclosing a metal container with two doorbells attached to the upper section. The test consisted of administering the test drug orally as a suspension in 10% olive oil and 90% Methocel (0.5%) to ten animals per dose. […] The test drugs included the present compound, DMHP, DPH, Δ^9 -THC and Phenobarbital.

The test system is the same in data set [3]. Nature of the data set: Audiogenic seizure test in mice (5-day chronic administration). The format is in vivo, male O'Grady strain mice. Conditions: for ED50: Mus musculus, fifth day, 4 hr post drug administration, read-out: Five day chronic audiogenic seizure test ED50 4 hr; for ED50 / activity in abolishing hind limb tonic extensor component: mice, oral; for activity in abolishing hind limb tonic extensor component: five consecutive days.
Source text: as §1
In this test, the animals, diluent and apparatus described in Example 1, above, were used. The experimental procedure consisted of administering the test drugs orally for four days at 0.5 mg./kg. for the present compound and DMHP, and 1.0 and 0.1 mg./kg., respectively, for DPH and phenobarbital. On the fifth day of testing a dose response study (N=10 animals per dose) was initiated to obtain the ED50 for each compound.

The test system of data set [4] is all components of audiogenic seizures. The experiment in a line: Audiogenic seizure test in mice (complete seizure protection). To be noted: single oral dose; for ED50: Mus musculus. In kind it is in vivo, male O'Grady strain mice.
Source text: as §1
The animals, diluent, apparatus and experimental procedure described in Example 1 above were used for the present test in mice to determine the complete seizure protection of the various compounds. The compounds tested included the present compound, DMHP and Δ^9 -THC.

The subject of data set [5] is hind limb tonic extension seizure (supramaximal electroshock). Nature of the data set: Supramaximal electroshock seizures in rats (single oral dose). In kind it is in vivo, male Long-Evans rats. Conditions: for ED50: Rattus norvegicus, rats, single oral dose. From the text: In this test, male Long-Evans rats (170-190 grams) were orally administered the test drugs as a suspension in olive oil and Methocel 0.5% to 5 or 10 animals per dose. At one and four hours post drug administration each animal received an electroshock (150 milliamp for 0.2 seconds) through corneal electrodes to produce a hind limb tonic extension seizure. The animals were considered protected when the hind limb tonic extensor component was blocked.

Data set [6] shares this test system. Nature of the data set: Supramaximal electroshock test in rats (5-day chronic administration). The format is in vivo, male Long-Evans rats. To be noted: for ED50: Rattus norvegicus, 5-day oral administration, fifth day, 4 hr post drug administration, read-out: ED50 4 hr (50% of animals protected from hind limb tonic extension). A general note: Protection in the maximal electroshock model is a classic sign of anticonvulsant action.

The mark [7] stands for this setting: 1 h, mice, single oral dose, 1 hr post drug administration, read-out: 1 hr ED50 (50% of animals protected from hindlimb tonic extension).
Setting [8] is: 4 h, mice, single oral dose, 4 hr post drug administration, read-out: 4 hr ED50 (50% of animals protected from hindlimb tonic extension).
Setting [9] is: 24 h, mice, single oral dose, 24 hr post drug administration, read-out: 24 hr ED50 (50% of animals protected from hindlimb tonic extension).
Where [10] appears, read: 4 hr post drug administration, read-out: Complete seizure protection 4 hr ED50.
Setting [11] is: 1 hr, read-out: 1 hr ED50 (50% of animals protected from hindlimb tonic extension).
Setting [12] is: 4 hr, read-out: 4 hr ED50 (50% of animals protected from hindlimb tonic extension).
Where [13] appears, read: 5-day oral, 2.5 mg./kg. (present compound, DMHP), 30.0 mg./kg. (DPH).

“Also recorded” adds a separate entry of the source. Structures can show the parent of a compound that is named as a salt. Where two headings read alike, the source gives them in different places. Where only a bound is given, the exact number is not on record here.

The values below come from patent US4039674A, “3-(3-Methyl-2-octyl)-1-[4-(1-ho mopiperidine)butyryloxy]-6,6,9-trimethyl-7,8,9,10-tetrahydro-6H-dibenzo [b,d]pyran hydrochloride as an anticonvulsant agent” (Abbott Laboratories, priority 1976, dated 1977).

As for `CCCCCC(C)C(C)c1cc(OC(=O)CCCN2CCCCCC2)c2c(c1)OC(C)(C)C1=C2CC(C)CC1` (stereo not shown) [Present compound, 3-(3-methyl-2-octyl)-1-[4-(1-homopiperidine)butyryloxy]-6,6,9-trimethyl-7,8,9,10-tetrahydro-6H-dibenzo[b,d]pyran hydrochloride], the “tolerance to side effects of sedation and irritability” value in data set [1] is “marked tolerance develops to the side effects of sedation and irritability within a few days of medication”. The ED50 in data set [2] (setting [7]) was 6.8 mg/kg; in data set [2] (setting [8]) it was 1.1 mg/kg; in data set [2] (setting [9]), 55.9 mg/kg; in data set [2] (daily, general description, read-out: oral ED50 for blocking the tonic extensor component of audiogenic seizures) it was 1 to 2 mg/kg; in data set [3], 0.7 mg/kg; in data set [4] (setting [10]), 7.8 mg/kg. The median effective dose (ED50) in data set [5] (setting [11]) was 60.6 mg/kg; in data set [5] (setting [12]) it was 7.4 mg/kg; in data set [5] (24 hr, read-out: 24 hr ED50), > 150 mg/kg; in data set [6], 37.2 mg/kg. Besides, in data set [2] (mice, single oral dose, 24 hr post drug administration, hydrochloride, 1440 min), the “24 hr ED50 (50% of animals protected from hindlimb tonic extension)” value is 55.5 mg/kg. Besides, the “anti-convulsant activity” value in data set [2] (mouse audiogenic seizure test, hydrochloride) is “marked activity in antagonizing the hind limb tonic extensor component; also recorded: potent anti-convulsant activity”; in data set [5] (rat supramaximal electroshock test, hydrochloride) it was “potent anti-convulsant activity; also recorded: marked activity in preventing the hind limb tonic extension feature of supramaximal electroshock”. Besides, in data set [3] (audiogenic seizure test in mice), the “retention of anticonvulsant activity on repeated medication” value is listed as “retained without any loss of the potency”. Further, the “activity in abolishing hind limb tonic extensor component” value in data set [3] was “marked activity in abolishing the hind limb tonic extensor component”. Also, the “antagonism of preconvulsive running” value in data set [4] was “preconvulsive running was not antagonized”. Besides, the “tolerance to anticonvulsant activity” value in data set [6] (setting [13]) is on record as “slight tolerance”; in data set [6] (daily higher doses such as 5.0 and 10.0 mg./kg.), “increase in tolerance”.

In the case of `O=C1NC(=O)C(c2ccccc2)(c2ccccc2)N1` [DPH, diphenylhydantoin], the ED50 in data set [2] (setting [7]) is 1.7 mg/kg; in data set [2] (setting [8]), 3.3 mg/kg; in data set [2] (setting [9]) it was 11 mg/kg; in data set [3], < 0.5 mg/kg; in data set [5] (setting [11]) it was 23 mg/kg; in data set [5] (setting [12]), 62.2 mg/kg. Besides, the ED50 in data set [5] (24 hr, read-out: 24 hr ED50) is > 200 mg/kg; in data set [6] it was 26.6 mg/kg.

As to `CCCCCc1cc(O)c2c(c1)OC(C)(C)C1CCC(C)=CC21` (single isomer, unassigned) [Δ9-THC], the ED50 is 5 mg/kg in data set [2] (setting [7]); 38.8 mg/kg in data set [2] (setting [8]); > 100 mg/kg in data set [2] (setting [9]); 6.5 mg/kg in data set [4] (1 h, one hour data, read-out: Complete seizure protection ED50 (one hour data)); 53.3 mg/kg in data set [5] (setting [11]); 40.6 mg/kg in data set [5] (setting [12]). For the same compound, the ED50 in data set [5] (24 hr, read-out: 24 hr ED50) is > 200 mg/kg. In data set [2] (mice), the “activity over time / time of peak effect” value is listed as “most active at the one hour period”.

`CCC1(c2ccccc2)C(=O)NC(=O)NC1=O` [Phenobarbital]: the ED50 stood at 1.9 mg/kg in data set [2] (setting [7]); 0.3 mg/kg in data set [2] (setting [8]); 6 mg/kg in data set [2] (setting [9]); 0.1 mg/kg in data set [3]; 22 mg/kg in data set [5] (setting [11]); 18 mg/kg in data set [5] (setting [12]). Also, the ED50 in data set [5] (24 hr, read-out: 24 hr ED50) is > 40 mg/kg. In addition, the “activity over time / time of peak effect” value in data set [2] (mice) is recorded as “peak effect at four hours post drug administration”. In addition, in data set [3], the “activity in abolishing hind limb tonic extensor component” value is on record as “very active”.

Regarding `CCCCCC(C)C(C)c1cc(O)c2c(c1)OC(C)(C)C1=C2CC(C)CC1` (stereo not shown) [DMHP], the ED50 in data set [2] (setting [7]) was determined as 6.7 mg/kg; in data set [2] (setting [8]), 2.9 mg/kg; in data set [2] (setting [9]), 15.1 mg/kg; in data set [3] it was 1.6 mg/kg; in data set [4] (setting [10]), 6.7 mg/kg; in data set [5] (setting [11]), 4.6 mg/kg. The ED50 in data set [5] (setting [12]) is 7.5 mg/kg; in data set [5] (24 hr, read-out: 24 hr ED50) it was 66.8 mg/kg; in data set [6], 26.7 mg/kg. Further, the “activity over time / time of peak effect” value in data set [2] (mice) is “active over a prolonged period (24 hours)”. In addition, the “tolerance to anticonvulsant activity” value in data set [6] (setting [13]) was “slight tolerance”.

As a reminder, the ED50 is the dose at which the effect has come halfway, by size or by number of responders.
